Experimental findings from patent publication US20240374552A1, “Compositions and Methods for Preventing or Reducing the Risk of Metabolic Syndrome” (priority 2021, published 2024) are described below.

The conditions of this series: in vivo, 10 mg.

Molecules are shown by their SMILES.

Take `CC(C)(C)c1cc(C=C(C#N)C#N)cc(C(C)(C)C)c1O` [tyrphostin AG17, Tyrphostin AG17]: the “Vdapa (L), Geometric Mean” value was 22.038 L; the “Vdapa (L), Mean” value is on record as 22.537 L; the “Vdapa (L), Median” value is reported as 22.494 L.
